Data on nine compounds can be found in ChEMBL document CHEMBL1152297, “Quantitative three dimensional structure linear interaction energy model of 5'-O-[N-(salicyl)sulfamoyl]adenosine and the aryl acid adenylating enzyme MbtA” (J Med Chem, 2008).

The target of this experiment is T1, Salicyl-AMP ligase / salicyl-S-ArCP synthetase (Mycobacterium tuberculosis, UniProt P71716).
T1 sequence (P71716 whole entry): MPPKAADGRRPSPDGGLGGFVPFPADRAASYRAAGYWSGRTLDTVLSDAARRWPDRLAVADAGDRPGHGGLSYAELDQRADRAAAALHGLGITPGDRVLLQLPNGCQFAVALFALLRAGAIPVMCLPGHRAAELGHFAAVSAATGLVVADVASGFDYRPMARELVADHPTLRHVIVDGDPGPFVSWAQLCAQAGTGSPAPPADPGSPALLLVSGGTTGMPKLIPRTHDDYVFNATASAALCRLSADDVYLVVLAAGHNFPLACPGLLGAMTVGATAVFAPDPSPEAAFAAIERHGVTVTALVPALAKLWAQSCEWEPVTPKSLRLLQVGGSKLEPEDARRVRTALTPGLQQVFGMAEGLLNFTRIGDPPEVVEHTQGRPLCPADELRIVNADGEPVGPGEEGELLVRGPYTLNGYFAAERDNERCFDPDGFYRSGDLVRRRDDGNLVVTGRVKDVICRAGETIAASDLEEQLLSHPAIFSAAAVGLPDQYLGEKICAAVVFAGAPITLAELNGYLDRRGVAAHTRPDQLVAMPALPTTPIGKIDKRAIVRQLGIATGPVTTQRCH
In words: Inhibition of Mycobacterium tuberculosis BAG RV143 MbtA expressed in Escherichia coli BL21 (DE3) assessed as ATP-[32P]PPi exchange by liquid scintillation counting. The conditions noted are these: read-out: Ki(app).

Take `Nc1ncnc2c1ncn2[C@@H]1O[C@H](CNS(=O)(=O)/C=C/c2ccccc2O)[C@@H](O)[C@H]1O`: the Ki was 143000 nM.

Take `Nc1ncnc2c1ncn2[C@@H]1O[C@H](COS(=O)(=O)CC(=O)c2ccccc2O)[C@@H](O)[C@H]1O`: the Ki was 3300 nM.

`Nc1ncnc2c1ncn2[C@@H]1O[C@H](CNS(=O)(=O)NC(=O)c2ccccc2O)[C@@H](O)[C@H]1O`: the Ki was 3.8 nM.

Take `Nc1ncnc2c1ncn2[C@@H]1C[C@H](COS(=O)(=O)NC(=O)c2ccccc2O)[C@@H](O)[C@H]1O`: the Ki stood at 2.3 nM.

`Nc1ncnc2c1ncn2[C@H]1C[C@H](O)[C@@H](COS(=O)(=O)NC(=O)c2ccccc2O)O1`: the Ki was determined as 3.5 nM.

With `Nc1ncnc2c1ncn2[C@@H]1O[C@H](COS(=O)(=O)NC(=O)c2ccccc2O)C[C@H]1O`, the Ki is 3.2 nM.

`Nc1ncnc2c1ncn2[C@H]1C=C[C@@H](COS(=O)(=O)NC(=O)c2ccccc2O)C1`: the Ki amounted to 830 nM.

For the compound `Nc1ncnc2c1ncn2[C@H]1CC[C@@H](COS(=O)(=O)NC(=O)c2ccccc2O)C1`, the Ki is 61 nM.

On to `Nc1ncnc2c1ncn2[C@@H]1O[C@H](COS(=O)(=O)NCc2ccccc2O)[C@@H](O)[C@H]1O`, for which the Ki was found to be 410 nM.
